Results as given in doi:10.1101/2023.10.03.560722, “Drug Discovery in Low Data Regimes: Leveraging a Computational Pipeline for the Discovery of Novel SARS-CoV-2 Nsp14-MTase Inhibitors” (bioRxiv, 2024).
Like-named read-outs stand apart in the source and are kept apart here.

Assays:
[1] = molecular target: SUV420H1 (Homo sapiens, UniProt Q4FZB7); experiment: human MTase selectivity panel; type: biochemical
[2] = molecular target: PRMT5 (Homo sapiens, UniProt O14744); experiment: human MTase selectivity panel; type: biochemical
[3] = molecular target: SUV420H2 (Homo sapiens, UniProt Q86Y97); experiment: human MTase selectivity panel; type: biochemical
[4] = tested on: SARS-CoV-2; type: cell-based; conditions: Calu-3 cells, lung epithelial SARS-CoV-2 infection model
[5] = molecular target: MLL3 (Homo sapiens, UniProt Q8NEZ4); experiment: human MTase selectivity panel; type: biochemical
[6] = molecular target: SETDB1 (Homo sapiens, UniProt Q15047); experiment: human MTase selectivity panel; type: biochemical
[7] = molecular target: T1, SMYD3 (Homo sapiens, UniProt Q9H7B4); experiment: human MTase selectivity panel; type: biochemical
T1 sequence (Q9H7B4 1-428): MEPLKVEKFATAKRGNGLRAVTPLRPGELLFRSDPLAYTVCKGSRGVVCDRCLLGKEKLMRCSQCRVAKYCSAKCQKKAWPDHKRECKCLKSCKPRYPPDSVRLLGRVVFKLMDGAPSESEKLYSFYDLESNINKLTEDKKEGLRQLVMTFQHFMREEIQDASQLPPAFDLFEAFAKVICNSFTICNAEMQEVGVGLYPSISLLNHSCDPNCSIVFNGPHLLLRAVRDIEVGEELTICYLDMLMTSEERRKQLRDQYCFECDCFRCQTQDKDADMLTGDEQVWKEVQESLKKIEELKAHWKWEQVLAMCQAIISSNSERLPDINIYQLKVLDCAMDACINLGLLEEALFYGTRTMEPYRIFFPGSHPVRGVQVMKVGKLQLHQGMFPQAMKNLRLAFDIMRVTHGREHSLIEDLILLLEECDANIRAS

[8] = molecular target: human RNMT (N7 guanosine RNA methyltransferase) (Homo sapiens, UniProt O43148); experiment: RNMT activity inhibition (selectivity); type: biochemical
[9] = molecular target: T2, GLP (Homo sapiens, UniProt Q9H9B1); experiment: human MTase selectivity panel; type: biochemical
T2 sequence (Q9H9B1 1-1298): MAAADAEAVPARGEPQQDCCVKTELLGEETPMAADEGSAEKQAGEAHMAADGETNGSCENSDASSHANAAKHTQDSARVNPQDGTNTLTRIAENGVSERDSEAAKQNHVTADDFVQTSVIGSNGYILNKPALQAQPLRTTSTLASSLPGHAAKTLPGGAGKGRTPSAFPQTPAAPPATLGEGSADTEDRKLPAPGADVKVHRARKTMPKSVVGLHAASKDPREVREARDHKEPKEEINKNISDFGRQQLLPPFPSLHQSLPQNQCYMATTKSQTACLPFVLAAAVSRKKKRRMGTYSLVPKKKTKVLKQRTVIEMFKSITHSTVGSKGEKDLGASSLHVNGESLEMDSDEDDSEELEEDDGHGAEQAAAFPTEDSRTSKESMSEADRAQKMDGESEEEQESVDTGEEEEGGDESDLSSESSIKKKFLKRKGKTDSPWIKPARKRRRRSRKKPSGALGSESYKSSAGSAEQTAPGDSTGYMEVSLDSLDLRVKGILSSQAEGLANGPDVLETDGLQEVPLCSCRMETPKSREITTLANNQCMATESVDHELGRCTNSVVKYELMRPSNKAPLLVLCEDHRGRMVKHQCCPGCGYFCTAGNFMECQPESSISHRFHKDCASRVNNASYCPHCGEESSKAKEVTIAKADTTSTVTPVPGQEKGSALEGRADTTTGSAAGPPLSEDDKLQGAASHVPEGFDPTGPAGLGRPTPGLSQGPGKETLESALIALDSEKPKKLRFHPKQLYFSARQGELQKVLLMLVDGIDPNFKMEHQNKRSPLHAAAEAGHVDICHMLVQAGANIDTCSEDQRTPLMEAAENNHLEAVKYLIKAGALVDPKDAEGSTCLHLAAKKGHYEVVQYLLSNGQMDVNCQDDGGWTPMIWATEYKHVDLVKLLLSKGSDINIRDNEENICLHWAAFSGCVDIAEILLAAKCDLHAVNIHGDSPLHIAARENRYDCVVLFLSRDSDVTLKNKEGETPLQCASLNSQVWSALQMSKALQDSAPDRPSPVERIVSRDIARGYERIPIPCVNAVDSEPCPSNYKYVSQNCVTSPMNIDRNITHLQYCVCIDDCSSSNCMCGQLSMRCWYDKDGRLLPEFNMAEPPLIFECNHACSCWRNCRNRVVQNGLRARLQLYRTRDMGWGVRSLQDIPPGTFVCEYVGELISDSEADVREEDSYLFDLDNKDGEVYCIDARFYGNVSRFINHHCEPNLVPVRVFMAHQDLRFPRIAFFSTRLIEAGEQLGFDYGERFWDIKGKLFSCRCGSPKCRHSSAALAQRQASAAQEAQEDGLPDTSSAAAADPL

[10] = molecular target: PRMT3 (Homo sapiens, UniProt O60678); experiment: human MTase selectivity panel; type: biochemical
[11] = average ± SD, read-out: Activity (%) at 10 µM Average
[12] = read-out: Activity (%) at 10 µM Replicate 1
[13] = read-out: Activity (%) at 10 µM Replicate 2
[14] = read-out: Activity (%) at 10 µM Replicate 3

Chain of SUV420H1 (Q4FZB7 whole entry): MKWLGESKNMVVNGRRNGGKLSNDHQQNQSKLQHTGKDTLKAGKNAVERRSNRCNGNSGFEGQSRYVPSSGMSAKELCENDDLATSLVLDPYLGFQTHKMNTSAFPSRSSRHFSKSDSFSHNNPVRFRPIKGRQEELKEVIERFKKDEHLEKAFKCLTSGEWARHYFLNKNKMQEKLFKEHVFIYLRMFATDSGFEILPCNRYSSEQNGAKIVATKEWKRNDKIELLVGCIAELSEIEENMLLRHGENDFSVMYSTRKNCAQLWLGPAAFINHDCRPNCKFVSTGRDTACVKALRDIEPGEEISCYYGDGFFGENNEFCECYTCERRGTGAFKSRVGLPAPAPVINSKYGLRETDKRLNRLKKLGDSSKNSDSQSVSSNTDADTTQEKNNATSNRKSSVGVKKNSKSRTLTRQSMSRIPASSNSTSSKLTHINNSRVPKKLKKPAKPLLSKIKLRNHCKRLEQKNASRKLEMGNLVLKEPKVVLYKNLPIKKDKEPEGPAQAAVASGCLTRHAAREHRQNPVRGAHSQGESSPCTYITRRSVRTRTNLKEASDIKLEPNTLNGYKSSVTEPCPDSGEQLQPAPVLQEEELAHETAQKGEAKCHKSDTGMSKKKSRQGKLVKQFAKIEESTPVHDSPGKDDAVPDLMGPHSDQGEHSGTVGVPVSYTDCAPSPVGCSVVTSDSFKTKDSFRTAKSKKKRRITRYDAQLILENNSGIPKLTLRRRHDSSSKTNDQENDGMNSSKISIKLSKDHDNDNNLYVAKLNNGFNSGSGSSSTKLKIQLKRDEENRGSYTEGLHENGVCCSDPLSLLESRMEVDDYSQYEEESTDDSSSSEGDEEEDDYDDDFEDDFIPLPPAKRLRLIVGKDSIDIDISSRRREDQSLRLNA
Chain of PRMT5 (O14744 whole entry): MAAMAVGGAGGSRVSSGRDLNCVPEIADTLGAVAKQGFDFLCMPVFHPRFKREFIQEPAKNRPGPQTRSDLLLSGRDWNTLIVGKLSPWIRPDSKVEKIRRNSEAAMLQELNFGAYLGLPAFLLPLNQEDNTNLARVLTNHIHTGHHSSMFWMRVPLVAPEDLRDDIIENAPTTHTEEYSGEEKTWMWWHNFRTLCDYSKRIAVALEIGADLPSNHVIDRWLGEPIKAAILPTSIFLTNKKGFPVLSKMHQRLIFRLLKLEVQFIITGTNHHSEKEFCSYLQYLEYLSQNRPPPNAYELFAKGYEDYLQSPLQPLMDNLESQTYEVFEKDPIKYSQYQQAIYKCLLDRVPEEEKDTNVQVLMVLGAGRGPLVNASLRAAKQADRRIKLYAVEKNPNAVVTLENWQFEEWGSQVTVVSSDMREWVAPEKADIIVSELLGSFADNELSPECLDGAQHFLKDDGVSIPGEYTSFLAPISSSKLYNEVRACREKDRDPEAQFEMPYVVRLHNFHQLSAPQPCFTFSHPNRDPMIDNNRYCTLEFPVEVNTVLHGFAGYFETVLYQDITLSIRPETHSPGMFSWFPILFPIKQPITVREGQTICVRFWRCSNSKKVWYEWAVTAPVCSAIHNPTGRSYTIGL
Chain of PRMT5 (Q9BQA1 whole entry partner): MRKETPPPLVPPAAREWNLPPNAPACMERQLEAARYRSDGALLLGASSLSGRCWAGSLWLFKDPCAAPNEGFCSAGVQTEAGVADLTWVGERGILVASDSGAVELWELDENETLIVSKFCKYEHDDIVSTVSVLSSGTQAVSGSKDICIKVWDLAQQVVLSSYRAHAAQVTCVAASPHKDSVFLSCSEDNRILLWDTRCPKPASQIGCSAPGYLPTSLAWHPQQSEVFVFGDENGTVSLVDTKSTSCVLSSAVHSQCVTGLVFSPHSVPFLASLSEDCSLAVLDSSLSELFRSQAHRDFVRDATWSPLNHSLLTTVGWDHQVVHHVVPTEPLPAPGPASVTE
Chain of SUV420H2 (Q86Y97 whole entry): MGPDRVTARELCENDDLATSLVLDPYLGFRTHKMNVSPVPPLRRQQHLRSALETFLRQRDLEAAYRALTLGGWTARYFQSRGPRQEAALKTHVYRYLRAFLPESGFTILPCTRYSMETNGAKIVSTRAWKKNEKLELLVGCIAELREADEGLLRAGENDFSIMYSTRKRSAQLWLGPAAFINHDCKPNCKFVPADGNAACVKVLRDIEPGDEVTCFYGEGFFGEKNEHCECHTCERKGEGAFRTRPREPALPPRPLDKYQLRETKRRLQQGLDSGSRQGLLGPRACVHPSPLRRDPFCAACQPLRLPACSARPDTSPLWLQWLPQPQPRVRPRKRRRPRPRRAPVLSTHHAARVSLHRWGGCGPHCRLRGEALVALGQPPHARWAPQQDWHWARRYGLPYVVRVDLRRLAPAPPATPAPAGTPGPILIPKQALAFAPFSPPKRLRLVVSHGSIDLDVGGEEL
Chain of PRMT3 (O60678 whole entry): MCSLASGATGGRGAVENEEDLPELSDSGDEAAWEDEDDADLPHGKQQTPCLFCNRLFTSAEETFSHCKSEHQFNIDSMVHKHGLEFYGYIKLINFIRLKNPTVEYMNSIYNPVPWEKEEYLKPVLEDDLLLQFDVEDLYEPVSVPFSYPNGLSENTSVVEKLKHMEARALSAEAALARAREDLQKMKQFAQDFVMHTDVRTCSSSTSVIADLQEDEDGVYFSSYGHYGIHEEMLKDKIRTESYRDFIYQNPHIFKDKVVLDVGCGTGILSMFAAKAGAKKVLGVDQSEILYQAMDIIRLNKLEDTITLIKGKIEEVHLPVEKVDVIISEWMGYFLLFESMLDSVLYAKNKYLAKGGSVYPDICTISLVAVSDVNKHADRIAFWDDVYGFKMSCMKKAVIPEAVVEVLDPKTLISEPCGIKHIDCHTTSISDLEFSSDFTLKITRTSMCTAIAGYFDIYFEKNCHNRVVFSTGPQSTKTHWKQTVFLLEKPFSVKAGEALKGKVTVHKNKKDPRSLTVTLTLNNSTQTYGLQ
Chain of human RNMT (N7 guanosine RNA methyltransferase) (O43148 whole entry): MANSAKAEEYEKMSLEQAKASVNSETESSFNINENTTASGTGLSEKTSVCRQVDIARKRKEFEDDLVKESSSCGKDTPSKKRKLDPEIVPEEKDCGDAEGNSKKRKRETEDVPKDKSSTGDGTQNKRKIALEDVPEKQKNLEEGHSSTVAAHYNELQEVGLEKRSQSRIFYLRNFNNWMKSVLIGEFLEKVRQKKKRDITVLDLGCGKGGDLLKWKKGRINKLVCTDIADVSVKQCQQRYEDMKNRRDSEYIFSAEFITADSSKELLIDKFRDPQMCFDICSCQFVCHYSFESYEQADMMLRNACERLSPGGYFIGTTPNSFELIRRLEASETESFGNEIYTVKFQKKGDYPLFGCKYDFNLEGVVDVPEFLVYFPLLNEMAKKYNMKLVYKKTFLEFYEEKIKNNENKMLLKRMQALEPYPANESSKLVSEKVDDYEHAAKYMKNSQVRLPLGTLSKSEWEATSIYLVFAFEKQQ

Nc1ncnc2c1ncn2[C@@H]1O[C@H](CSCc2ccc(Cl)cc2)[C@@H](O)[C@H]1O [NSC620333]
activity at 10 µM [1, 11]: 93 ± 8% | activity at 10 µM [1, 12]: 84% | activity at 10 µM [1, 13]: 97% | activity at 10 µM [1, 14]: 98% | activity at 10 µM [2, 11]: 63 ± 7% | activity at 10 µM [2, 12]: 69% | activity at 10 µM [2, 13]: 64% | activity at 10 µM [2, 14]: 55% | activity at 10 µM [3, 11]: 96 ± 9% | activity at 10 µM [3, 12]: 96% | activity at 10 µM [3, 13]: 104% | activity at 10 µM [3, 14]: 86% | anti-SARS-CoV-2 activity [4]: demonstrated anti-SARS-CoV-2 activity | activity at 10 µM [5, 11]: 51 ± 6% | activity at 10 µM [5, 12]: 44% | activity at 10 µM [5, 13]: 57% | activity at 10 µM [5, 14]: 53% | activity at 10 µM [6, 11]: 103 ± 3% | activity at 10 µM [6, 12]: 104% | activity at 10 µM [6, 13]: 106% | activity at 10 µM [6, 14]: 100% | activity at 10 µM [7, 11]: 100 ± 9% | activity at 10 µM [7, 12]: 101% | activity at 10 µM [7, 13]: 108% | activity at 10 µM [7, 14]: 91% | IC50 ([8]; RNMT): 8.6 ± 1.3 µM | Hill Slope ([8]; RNMT IC50 curve): -1.5 | activity at 10 µM [9, 11]: 100 ± 5% | activity at 10 µM [9, 12]: 95% | activity at 10 µM [9, 13]: 105% | activity at 10 µM [9, 14]: 101% | activity at 10 µM [10, 11]: 79 ± 5% | activity at 10 µM [10, 12]: 75% | activity at 10 µM [10, 13]: 78% | activity at 10 µM [10, 14]: 85%
